Assay results published in patent US5723666A, “Oxime substituted tetrahydronaphthalene derivatives having retinoid and/or retinoid antagonist-like biological activity” (Allergan, priority 1996, dated 1998).

Target: T1, RARα (Homo sapiens, UniProt P10276)
T1 sequence (P10276 1-462): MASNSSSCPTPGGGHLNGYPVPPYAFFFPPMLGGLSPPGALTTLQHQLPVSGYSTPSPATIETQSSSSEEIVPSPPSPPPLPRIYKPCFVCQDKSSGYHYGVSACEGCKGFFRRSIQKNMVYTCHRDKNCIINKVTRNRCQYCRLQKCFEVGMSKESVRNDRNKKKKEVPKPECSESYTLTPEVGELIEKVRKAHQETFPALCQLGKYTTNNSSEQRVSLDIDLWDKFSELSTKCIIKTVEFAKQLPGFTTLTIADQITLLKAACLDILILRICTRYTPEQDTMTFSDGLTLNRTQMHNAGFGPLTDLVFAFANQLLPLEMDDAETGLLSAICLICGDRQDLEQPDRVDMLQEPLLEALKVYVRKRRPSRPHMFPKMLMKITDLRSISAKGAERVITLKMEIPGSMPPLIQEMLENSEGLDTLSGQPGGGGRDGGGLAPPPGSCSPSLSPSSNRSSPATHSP
Experiment: Ligand Binding Assay, RARα
Source text: Other assays described below, measure the ability of the compounds of the present invention to bind to, and/or activate various retinoid receptor subtypes. When in these assays a compound binds to a given receptor subtype and activates the transcription of a reporter gene through that subtype, then the compound is considered an agonist of that receptor subtype. […] In the below described assays the ability of the compounds to bind to RARα, RARβ, RARγ, RXRα, RXRβ and RXRγ receptors, and the ability or inability of the compounds to activate transcription of a reporter gene through these receptor subtypes can be tested.
A holoreceptor transactivation assay and a ligand binding assay which measure the antagonist/agonist like activity of the compounds of the invention, or their ability to bind to the several retinoid receptor subtypes, respectively, are described in published PCT Application No. WO WO93/11755 (particularly on pages 30-33 and 37-41) published on Jun. 24, 1993, the specification of which is also incorporated herein by reference. A description of the holoreceptor transactivation assay is also provided below.
CV1 cells (5,000 cells/well) were transfected with an RAR, reporter plasmid MTV-TREp-LUC (50 ng) along with one of the RAR expression vectors (10 ng) in an automated 96-well format by the calcium phosphate procedure of Heyman et al. Cell 68, 397-406, (1992). […]

Kd: 1000 nM
SMILES: CO/N=C1\CCC(C)(C)c2ccc(/N=N/c3ccc(C(=O)O)cc3)cc21 [Compound D4]
